In patent US8153397B2 (priority 1993, dated 2012):

Molecular target: rBoNT/A LC (Clostridium botulinum, UniProt P0DPI0)
Type: biochemical

Sequence of rBoNT/A LC (P0DPI0 3-448, added parts left off): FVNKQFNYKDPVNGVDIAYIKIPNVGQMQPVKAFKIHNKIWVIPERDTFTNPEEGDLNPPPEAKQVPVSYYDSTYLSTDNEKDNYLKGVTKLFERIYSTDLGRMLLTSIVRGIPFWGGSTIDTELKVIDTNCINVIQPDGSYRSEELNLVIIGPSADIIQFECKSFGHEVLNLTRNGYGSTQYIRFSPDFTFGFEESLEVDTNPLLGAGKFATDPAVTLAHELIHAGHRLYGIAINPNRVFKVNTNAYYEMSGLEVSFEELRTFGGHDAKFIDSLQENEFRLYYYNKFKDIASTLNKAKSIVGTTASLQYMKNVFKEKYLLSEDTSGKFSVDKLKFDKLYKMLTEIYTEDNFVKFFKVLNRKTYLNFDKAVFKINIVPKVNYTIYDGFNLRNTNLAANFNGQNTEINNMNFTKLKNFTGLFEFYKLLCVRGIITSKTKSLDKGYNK

Which “% Activity” value does the source give for `[Ca+2].[Cl-].[Cl-]` [CaCl2] here?
The value was 75%.

Which “% Activity” value does the source give for `O=S(=O)([O-])[O-].[Cu+2]` [CuSO4] here?
Its value is 95%.

Which “% Activity” value does the source give for `O[C@H](CS)[C@@H](O)CS` [Dithioerythreitol] here?
The value was 60%.

What about the “effect on activity of the rBoNT/A LC” value of the same compound?
The value was “inhibited the activity to various extents”.

What does the source list for `O[C@H](CS)[C@H](O)CS` [Dithiothreitol]?
% Activity: 45%; effect on activity of the rBoNT/A LC: significantly inhibited

Which results are given for `O=C(O)CN(CCN(CC(=O)O)CC(=O)O)CC(=O)O` [EDTA]?
% Activity: 00%; effect on activity of the rBoNT/A LC: completely inhibited

`[Cl][Fe][Cl]` [FeCl2] was tested. Which “% Activity” value did it give?
The value was 35%.

Which results are given for `N[C@@H](CCC(=O)N[C@@H](CS)C(=O)NCC(=O)O)C(=O)O` [Glutathione, reduced]?
% Activity: 75%; effect on activity of the rBoNT/A LC: inhibited the activity to various extents

With `NC(=O)CI` [Iodoacetamide] as the compound, how does the “% Activity” value read?
Its value is 80%.

For `N[C@@H](CS)C(=O)O` [L-Cysteine], which “% Activity” value is on record?
The value was 20%.

What about the “effect on activity of the rBoNT/A LC” value of the same compound?
Its value is “inhibited the activity to various extents”.

With `[Cl][Hg][Cl]` [Mercuric chloride] as the compound, how does the “% Activity” value read?
The value was 00%.

What about the “effect on activity of the rBoNT/A LC” value of the same compound?
The value was “completely abolished”.

`[Cl-].[Cl-].[Mg+2]` [MgCl2] was tested. Which “% Activity” value did it give?
The value was 90%.

What does the source list for `[Cl][Mn][Cl]` [MnCl2]?
% Activity: 40%; effect on activity of the rBoNT/A LC: inhibited the LC reaction to various extents

Which “% Activity” value does the source give for `O=S(=O)([O-])[O-].[Ni+2]` [NiSO4] here?
Its value is 55%.

And the “effect on activity of the rBoNT/A LC” value?
The value was “inhibited the LC reaction to various extents”.

Which “% Activity” value does the source give for `N[C@@H](CCC(=O)N[C@@H](CSN=O)C(=O)NCC(=O)O)C(=O)O` [S-Nitrosoglutathione] here?
The value was 55%.

Which stimulation of activity does the source give for `[Cl-].[Cl-].[Zn+2]` [ZnCl2] here?
Its stimulation of activity is 5%-10%.

With `O=C(O)c1cc[c]([Hg][Cl])cc1` [p-C1-Mercuribenzoate] as the compound, how does the “% Activity” value read?
Its value is 00%.

And the “effect on activity of the rBoNT/A LC” value?
The value was “completely abolished”.

For `OCCS` [β-Mercaptoethanol], which “% Activity” value is on record?
The value was 120%.

What about the “effect on activity of the rBoNT/A LC” value of the same compound?
Its value is “stimulated the activity”.

Which “% Activity” value does the source give for CoCl2 here?
Its value is 90%.
